# Data: ChEMBL document CHEMBL1201862, “PubChem BioAssay data set” (2004)
# Activity calls are given as the source filed them.
# What was measured:
# [1] = target: T1, Galanin receptor type 3 (Homo sapiens, UniProt O60755); assay: Fluorescence-based cell-based primary high throughput dose response assay to identify antagonists of the Galanin Receptor 3 (GalR3).; type: functional
# T1 sequence (O60755 whole entry): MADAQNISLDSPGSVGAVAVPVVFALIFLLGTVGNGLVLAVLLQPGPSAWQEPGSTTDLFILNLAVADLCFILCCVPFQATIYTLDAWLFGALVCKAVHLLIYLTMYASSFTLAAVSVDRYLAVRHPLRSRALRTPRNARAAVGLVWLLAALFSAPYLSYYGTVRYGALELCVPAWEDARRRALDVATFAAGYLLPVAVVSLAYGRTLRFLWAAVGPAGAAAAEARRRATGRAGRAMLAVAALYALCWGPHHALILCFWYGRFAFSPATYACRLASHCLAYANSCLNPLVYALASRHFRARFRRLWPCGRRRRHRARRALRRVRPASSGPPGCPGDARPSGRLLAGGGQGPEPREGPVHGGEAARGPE
# [2] = cells; type: functional, cell-based; conditions: HEK-CNG
# [3] = system: CHO-K1; assay: (§1) Counterscreen for antagonists of the orexin 1 receptor (OX1R; HCRTR1): Homogeneous time resolved fluorescence (HTRF)-based cell-based dose response assay to identify antagonists of the parental CHO-K1 cell line. [Related pubchem assays (depositor defined):AID434989, AID435008, AID463079, AID485270, AID492963, AID492964, AID492965, AID493232, AID504699, AID504701]; type: functional; conditions: Cricetulus griseus
# [4] = as §1, with “Fluorescence-based” for “Homogeneous time resolved fluorescence (HTRF)-based”, “cell-based high throughput” for “cell-based”, “CHO” for “CHO-K1”; type: functional
# [5] = target: T2, Orexin/Hypocretin receptor type 1 (Homo sapiens, UniProt O43613); assay: Homogeneous Time Resolved Fluorescence (HTRF)-based cell-based high throughput dose response assay for antagonists of the orexin 1 receptor (OX1R; HCRTR1). [Related pubchem assays (depositor defined):AID434989, AID435008, AID463079, AID485270, AID492963, AID492964, AID492965, AID493232, AID504717, AID504718]; type: functional
# T2 sequence (O43613 whole entry): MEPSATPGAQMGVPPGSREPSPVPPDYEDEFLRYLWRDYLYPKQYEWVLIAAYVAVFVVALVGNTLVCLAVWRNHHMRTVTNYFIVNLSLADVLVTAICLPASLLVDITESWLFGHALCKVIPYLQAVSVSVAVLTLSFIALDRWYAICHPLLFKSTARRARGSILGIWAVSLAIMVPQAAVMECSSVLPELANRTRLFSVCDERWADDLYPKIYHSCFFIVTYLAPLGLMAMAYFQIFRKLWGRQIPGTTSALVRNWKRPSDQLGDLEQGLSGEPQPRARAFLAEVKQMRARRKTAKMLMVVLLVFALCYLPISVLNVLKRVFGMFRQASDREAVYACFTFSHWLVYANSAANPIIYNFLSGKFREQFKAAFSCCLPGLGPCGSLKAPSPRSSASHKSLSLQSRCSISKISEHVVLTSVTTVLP
# [6] = target: T2, Orexin/Hypocretin receptor type 1; assay: Fluorescence-based cell-based high throughput dose response assay for antagonists of the orexin 1 receptor (OX1R; HCRTR1). [Related pubchem assays (depositor defined):AID434989, AID435008, AID463079, AID485270, AID492963, AID492964, AID492965, AID493232, AID504717, AID504718]; type: functional
# [7] = target: T3, Orexin receptor type 2 (Homo sapiens, UniProt O43614); assay: Counterscreen assay for antagonists of the orexin 1 receptor (OX1R; HCRTR1): Fluorescence-based cell-based dose response assay for antagonists of the orexin 2 receptor (OX2R; HCRTR2), run by assay provider.; type: functional
# T3 sequence (O43614 whole entry): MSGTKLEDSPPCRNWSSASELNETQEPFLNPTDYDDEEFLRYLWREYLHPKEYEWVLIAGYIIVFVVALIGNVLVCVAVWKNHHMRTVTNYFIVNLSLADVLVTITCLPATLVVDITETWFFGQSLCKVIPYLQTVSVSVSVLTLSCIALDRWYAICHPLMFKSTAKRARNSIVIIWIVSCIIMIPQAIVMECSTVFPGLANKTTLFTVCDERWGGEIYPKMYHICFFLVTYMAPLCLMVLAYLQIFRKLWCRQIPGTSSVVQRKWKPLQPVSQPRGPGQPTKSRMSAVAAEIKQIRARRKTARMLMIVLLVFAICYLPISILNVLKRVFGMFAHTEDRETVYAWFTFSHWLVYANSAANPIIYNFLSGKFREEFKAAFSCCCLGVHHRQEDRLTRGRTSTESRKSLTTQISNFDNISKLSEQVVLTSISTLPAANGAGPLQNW
# [8] = target: T3, Orexin receptor type 2; assay: Counterscreen assay for antagonists of the orexin 1 receptor (OX1R; HCRTR1): Homogeneous Time Resolved Fluorescence (HTRF)-based cell-based dose response assay for antagonists of the orexin 2 receptor (OX2R; HCRTR2), run by assay provider.; type: functional
# [9] = target: T4, DNA repair and recombination protein RAD54-like (Homo sapiens, UniProt Q92698); assay: inhibitors of human RAD54 branch migration, confirmation, biochemical, fluorescence, cherry-picked samples, dose series (AID 651657); type: functional
# T4 sequence (Q92698 whole entry): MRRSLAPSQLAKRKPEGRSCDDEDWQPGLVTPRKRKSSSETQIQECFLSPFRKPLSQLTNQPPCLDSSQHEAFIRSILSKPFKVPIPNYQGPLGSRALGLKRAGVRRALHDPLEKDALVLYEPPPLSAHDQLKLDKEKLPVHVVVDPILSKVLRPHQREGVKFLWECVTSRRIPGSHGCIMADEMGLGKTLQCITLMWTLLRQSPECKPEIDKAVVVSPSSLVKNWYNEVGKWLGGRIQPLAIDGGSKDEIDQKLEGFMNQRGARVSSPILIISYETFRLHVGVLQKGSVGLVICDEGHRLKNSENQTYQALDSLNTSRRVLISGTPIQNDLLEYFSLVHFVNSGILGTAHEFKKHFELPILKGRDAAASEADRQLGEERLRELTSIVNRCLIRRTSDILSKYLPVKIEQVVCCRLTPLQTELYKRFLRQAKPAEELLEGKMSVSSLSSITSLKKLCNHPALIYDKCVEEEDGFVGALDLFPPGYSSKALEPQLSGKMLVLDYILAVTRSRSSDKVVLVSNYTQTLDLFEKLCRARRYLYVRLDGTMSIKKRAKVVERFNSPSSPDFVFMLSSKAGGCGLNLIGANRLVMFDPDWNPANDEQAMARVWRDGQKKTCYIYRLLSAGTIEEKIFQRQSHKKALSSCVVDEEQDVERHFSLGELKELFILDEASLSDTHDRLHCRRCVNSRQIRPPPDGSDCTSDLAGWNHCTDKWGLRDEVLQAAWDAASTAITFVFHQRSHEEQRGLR
# [10] = target: T5, fMet-Leu-Phe receptor (Homo sapiens, UniProt P21462); assay: FPR ligands, dose response (AID 519); type: functional
# T5 sequence (P21462 whole entry): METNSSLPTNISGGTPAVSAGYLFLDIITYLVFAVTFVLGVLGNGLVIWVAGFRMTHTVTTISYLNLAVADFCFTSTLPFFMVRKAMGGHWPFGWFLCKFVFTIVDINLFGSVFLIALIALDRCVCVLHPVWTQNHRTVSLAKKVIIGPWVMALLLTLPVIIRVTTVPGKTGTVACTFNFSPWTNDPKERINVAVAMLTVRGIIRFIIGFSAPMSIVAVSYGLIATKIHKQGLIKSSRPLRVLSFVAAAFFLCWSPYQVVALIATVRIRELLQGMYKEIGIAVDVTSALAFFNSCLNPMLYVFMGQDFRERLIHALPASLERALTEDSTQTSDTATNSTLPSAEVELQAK
# [11] = cells; type: functional, cell-based
# [12] = target: T6, Trace amine-associated receptor 1 (Homo sapiens, UniProt Q96RJ0); assay: Fluorescence-based cell-based high throughput dose response assay to identify agonists of the human trace amine associated receptor 1 (TAAR1).; type: functional
# T6 sequence (Q96RJ0 whole entry): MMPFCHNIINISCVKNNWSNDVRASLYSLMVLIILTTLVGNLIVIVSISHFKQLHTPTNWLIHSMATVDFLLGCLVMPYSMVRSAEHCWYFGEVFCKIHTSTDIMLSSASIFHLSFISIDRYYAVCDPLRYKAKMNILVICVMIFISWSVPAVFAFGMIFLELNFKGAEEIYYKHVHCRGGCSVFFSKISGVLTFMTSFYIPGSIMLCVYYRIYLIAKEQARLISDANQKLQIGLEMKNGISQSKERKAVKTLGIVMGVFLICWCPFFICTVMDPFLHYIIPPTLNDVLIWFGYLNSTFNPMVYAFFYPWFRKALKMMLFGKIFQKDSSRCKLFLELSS
# [13] = target: T6, Trace amine-associated receptor 1; assay: Counterscreen for agonists of the human trace amine associated receptor 1 (hTAAR1): Fluorescence-based cell-based high throughput dose response assay to identify hTAAR1 agonist that also desensitize TAAR1 receptor response.; type: functional
# [14] = cells; type: functional, cell-based; remark: listed apart in the source
SMILES,IC50 [3],IC50 [4],IC50 [5],IC50 [6],IC50 [7],IC50 [8],also measured
N#Cc1nc(N2CCCC2)nc(N2CCCC2)n1,,,,,,,IC50 [1]: 1.81 µM (active); EC50 [2]: > 29.9 µM (inactive)
Cc1cc(C)n2nc(-c3cccc(Br)c3)cc2n1,> 66.2 µM (inactive),> 49.7 µM (inactive),2.05 µM (active),9.69 µM (active),> 88.8 µM (inactive),> 50 µM (inactive),
CCN1CCN(CCCNC(=O)c2cc3c(O)nc4ccccc4c3s2)CC1,,,,,,,AC50 [9]: 46.5 µM (active)
Cc1noc(C)c1COC(=O)c1ccc2c(c1)S(=O)(=O)c1ccccc1C2=O,18.5 µM (inactive),> 49.7 µM (inactive),1.2 µM (active),4 µM (active),> 88.8 µM (inactive),> 50 µM (inactive),
CCC(CCC(=O)Nc1cccc(C(=O)O)c1)C(=O)O (stereo unspecified),,,,,,,Ki [10]: > 66.7 µM (inactive)
c1c[nH]c(CN2CCN(Cc3ncc[nH]3)CC2)n1,,,,,,,AC50 [9]: 63.3 µM (active)
CC(=C/c1ccccc1)/C=C1/SC(N2CCOCC2)=NC1=O,40.7 µM (inactive),> 49.8 µM (inactive),0.51 µM (active),3.82 µM (active),> 88.8 µM (inactive),26 µM (inactive),
C#CCOC(=O)CCC(=O)NCCc1ccccc1,,,,,,,IC50 [11]: > 29.9 µM (inactive); EC50 [12]: 3.07 µM (active); IC50 [13]: 1.66 µM (active); EC50 [14]: > 29.9 µM (inactive)
Cc1nnc(SCC(=O)NCCC2=CCCCC2)nc1O,,,,,,,IC50 [11]: > 29.9 µM (inactive); EC50 [12]: 1.25 µM (active); IC50 [13]: 7.22 µM (active); EC50 [14]: > 29.9 µM (inactive)
